Results published in US20250163047A1, “HETEROCYCLIC COMPOUNDS, COMPOSITIONS THEREOF, AND METHODS OF TREATMENT THEREWITH” (BeiGene, Ltd., priority 2022, published 2025).

Columns and labels:
Cbl (aa49-434) = target: T1, Cbl (aa49-434) (Homo sapiens, UniProt P22681); assay: Co-expressed Cbl with BirA biochemical assay (CBL/E2-Ub binding, HTRF); details: 0.6 nM Cbl co-expressed with BirA, read-out: co-express CBL/E2-Ub-binding assay IC50
T1 construct: Cbl (aa49-434, in-house); made in house
T1 sequence (P22681 49-434): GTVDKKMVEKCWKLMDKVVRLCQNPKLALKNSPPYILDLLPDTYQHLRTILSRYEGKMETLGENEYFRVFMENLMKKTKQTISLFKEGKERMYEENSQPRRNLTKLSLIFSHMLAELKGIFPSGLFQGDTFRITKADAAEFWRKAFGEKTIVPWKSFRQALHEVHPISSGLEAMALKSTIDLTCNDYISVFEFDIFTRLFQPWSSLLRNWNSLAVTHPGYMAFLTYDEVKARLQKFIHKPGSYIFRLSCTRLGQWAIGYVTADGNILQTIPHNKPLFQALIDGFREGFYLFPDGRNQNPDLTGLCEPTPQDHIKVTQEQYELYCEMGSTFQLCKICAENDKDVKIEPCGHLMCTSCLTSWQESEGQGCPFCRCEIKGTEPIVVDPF
From the text: (§1) The assay in the absence of a Cbl-b/Cbl inhibitor, where phosphorylation of Cbl-b/Cbl by the Src kinase allows UbcH5B-Ub to bind to Cbl-b/Cbl and brings the Bodipy-Fluorescein tagged ubiquitin in proximity to the streptavidin-terbium bound to the N-terminal biotinylated Avi-tagged Cbl-b/Cbl. […] The lack of a FRET signal indicates Cbl-b/Cbl is inhibited by the Cbl-b/Cbl inhibitor.

Cbl-b (aa36-427) = target: T2, Cbl-b (aa36-427) (Homo sapiens, UniProt Q13191); assay: Co-expressed Cbl-b with BirA biochemical assay (CBLB/E2-Ub binding, HTRF); details: 0.6 nM Cbl-b co-expressed with BirA, HTRF; read-out: co-express CBLB/E2-Ub-binding assay IC50
T2 construct: Cbl-b (aa36-427, in-house); made in house
From the text: as §1

T2 sequence (Q13191 36-427): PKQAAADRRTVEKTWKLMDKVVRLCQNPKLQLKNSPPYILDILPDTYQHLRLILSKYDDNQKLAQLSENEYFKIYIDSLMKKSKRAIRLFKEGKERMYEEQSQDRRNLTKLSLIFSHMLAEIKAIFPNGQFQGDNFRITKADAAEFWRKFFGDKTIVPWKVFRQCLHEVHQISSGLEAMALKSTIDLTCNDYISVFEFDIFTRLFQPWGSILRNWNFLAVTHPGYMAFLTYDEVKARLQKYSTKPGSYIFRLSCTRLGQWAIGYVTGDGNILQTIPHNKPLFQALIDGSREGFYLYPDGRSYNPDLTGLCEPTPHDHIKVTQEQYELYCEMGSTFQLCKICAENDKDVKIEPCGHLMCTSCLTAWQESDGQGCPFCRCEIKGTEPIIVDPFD

| Structure (SMILES) | IC50 (Cbl (aa49-434)) | IC50 (Cbl-b (aa36-427)) |
| --- | --- | --- |
| Cn1cnnc1C[C@]1(c2cccc(NC(=O)c3cc(CNCC4(C)CCCC4)cn4ccnc34)c2)C[C@H](C#N)C1 [Compound A24, N-(3-((1r, 3r)-3-cyano-1-((4-methyl-4H-1,2,4-triazol-3-yl)methyl)cyclobutyl)phenyl)-6-((((1-methylcyclopentyl)methyl)amino)methyl)imidazo[1,2-a]pyridine-8-carboxamide] | 8.6 nM | 2.9 nM |
| C[C@H]1CCCN(Cc2cc(C(=O)Nc3cccc([C@]4(c5nncn5C)C[C@@H](CC#N)C4)c3)nc3cc[nH]c23)C1 [Compound B5, N-(3-((1s,3R)-3-(cyanomethyl)-1-(4-methyl-4H-1,2,4-triazol-3-yl)cyclobutyl)phenyl)-7-(((S)-3-methylpiperidin-1-yl)methyl)-1H-pyrrolo[3,2-b]pyridine-5-carboxamide] | 16 nM | 1.6 nM |
| Cn1cnnc1[C@]1(c2cccc(NC(=O)c3cc(CNC4(C)CC4)c4[nH]cc(F)c4n3)c2)C[C@H](CC#N)C1 [Compound B54, N-(3-((1s, 3s)-3-(cyanomethyl)-1-(4-methyl-4H-1,2,4-triazol-3-yl)cyclobutyl)phenyl)-3-fluoro-7-(((1-methylcyclopropyl)amino)methyl)-1H-pyrrolo[3,2-b]pyridine-5-carboxamide] | 12 nM | 1.2 nM |
| Cn1cnnc1[C@]1(c2cccc(NC(=O)c3cc(CNCC4CCCC4)c4c(n3)C(C)(C)CO4)c2)C[C@H](C)C1 [Compound C33, 7-(((cyclopentylmethyl)amino)methyl)-3,3-dimethyl-N-(3-((1s, 3s)-3-methyl-1-(4-methyl-4H-1,2,4-triazol-3-yl)cyclobutyl)phenyl)-2,3-dihydrofuro[3,2-b]pyridine-5-carboxamide] | 46.7 nM | 11.4 nM |
| Cn1cnnc1[C@]1(c2cccc(NC(=O)c3cc(CNC4(C)CC4)cn4ccnc34)c2)C[C@H](C)C1 [Compound A16, N-(3-((1s, 3s)-3-methyl-1-(4-methyl-4H-1,2,4-triazol-3-yl)cyclobutyl)phenyl)-6-(((1-methylcyclopropyl)amino)methyl)imidazo[1,2-a]pyridine-8-carboxamide] | 5.9 nM | 0.9 nM |
| CC[C@H](C)NCc1cc(C(=O)Nc2cncc([C@]3(c4nncn4C)C[C@@H](C)C3)c2)c2nccn2c1 [Compound A49, 6-((((S)-sec-butyl)amino)methyl)-N-(5-((1s,3R)-3-methyl-1-(4-methyl-4H-1,2,4-triazol-3-yl)cyclobutyl)pyridin-3-yl)imidazo[1,2-a]pyridine-8-carboxamide] | 11.9 nM | 3 nM |
| C[C@H]1CCCN(Cc2cc(C(=O)Nc3cccc([C@]4(c5nncn5C)C[C@@H](C)C4)c3)nn3cccc23)C1 [Compound B13, 4-{[(3S)-3-methylpiperidin-1-yl]methyl}-N-{3-[(1r, 3s)-3-methyl-1-(4-methyl-1,2,4-triazol-3-yl)cyclobutyl]phenyl}pyrrolo[1,2-b]pyridazine-2-carboxamide] | 89.1 nM | 30.5 nM |
| Cn1cnnc1[C@]1(c2cccc(NC(=O)c3cc(CNCC4CCC(F)(F)C4)c4c(n3)C(C)(C)CC4)c2)C[C@H](CC#N)C1 (stereo partly shown) [Compound C16, N-(3-((1s, 3s)-3-(cyanomethyl)-1-(4-methyl-4H-1,2,4-triazol-3-yl)cyclobutyl)phenyl)-4-((((3,3-difluorocyclopentyl)methyl)amino)methyl)-7,7-dimethyl-6,7-dihydro-5H-cyclopenta[b]pyridine-2-carboxamide] | 5.3 nM | 1.7 nM |
| Cn1cnnc1[C@]1(c2cccc(NC(=O)c3cc(CNCC4(F)CCC4)cn4ccnc34)c2)C[C@H](CC#N)C1 [Compound A37, N-(3-((1s, 3s)-3-(cyanomethyl)-1-(4-methyl-4H-1,2,4-triazol-3-yl)cyclobutyl)phenyl)-6-((((1-fluorocyclobutyl)methyl)amino)methyl)imidazo[1,2-a]pyridine-8-carboxamide] | 4.8 nM | 0.8 nM |
| Cn1cnnc1[C@]1(c2cccc(NC(=O)c3cc(CNCC4(C)CCC4)c4c(n3)C(C)(C)CC4)c2)C[C@H](CC#N)C1 [Compound C37, N-(3-((1s, 3s)-3-(cyanomethyl)-1-(4-methyl-4H-1,2,4-triazol-3-yl)cyclobutyl)phenyl)-7,7-dimethyl-4-((((1-methylcyclobutyl)methyl)amino)methyl)-6,7-dihydro-5H-cyclopenta[b]pyridine-2-carboxamide] | 2.4 nM | 0.9 nM |

Further compounds by falling IC50 (Cbl (aa49-434)), results first:

| IC50 (Cbl (aa49-434)) | IC50 (Cbl-b (aa36-427)) | Structure (SMILES) |
| --- | --- | --- |
| 9.6 nM | 4.2 nM | Cn1cnnc1[C@]1(c2cncc(NC(=O)c3cc(CNCC4CCC4)c4c(n3)C(C)(C)CC4)c2)C[C@H](C)C1 [Compound C29, 4-(((cyclobutylmethyl)amino)methyl)-7,7-dimethyl-N-(5-((1s, 3s)-3-methyl-1-(4-methyl-4H-1,2,4-triazol-3-yl)cyclobutyl)pyridin-3-yl)-6,7-dihydro-5H-cyclopenta[b]pyridine-2-carboxamide] |
| 8.2 nM | 1.8 nM | Cn1cnnc1[C@]1(c2cncc(NC(=O)c3cc(CNC4(C)CCC4)cn4ccnc34)c2)C[C@H](C)C1 [Compound A81, N-(5-((1s, 3s)-3-methyl-1-(4-methyl-4H-1,2,4-triazol-3-yl)cyclobutyl)pyridin-3-yl)-6-(((1-methylcyclobutyl)amino)methyl)imidazo[1,2-a]pyridine-8-carboxamide] |
| 3.4 nM | 0.8 nM | Cn1cnnc1[C@]1(c2cccc(NC(=O)c3cc(CNCC4CCC4)cn4c(F)cnc34)c2)C[C@H](C)C1 [Compound A52, 6-(((cyclobutylmethyl)amino)methyl)-3-fluoro-N-(3-((1s, 3s)-3-methyl-1-(4-methyl-4H-1,2,4-triazol-3-yl)cyclobutyl)phenyl)imidazo[1,2-a]pyridine-8-carboxamide] |
| 2.9 nM | 0.9 nM | Cn1cnnc1[C@]1(c2cccc(NC(=O)c3cc(CNCC4CCCC4)cn4c(Cl)cnc34)c2)C[C@H](C)C1 [Compound A68, 3-chloro-6-(((cyclopentylmethyl)amino)methyl)-N-(3-((1s, 3s)-3-methyl-1-(4-methyl-4H-1,2,4-triazol-3-yl)cyclobutyl)phenyl)imidazo[1,2-a]pyridine-8-carboxamide] |
| 2.4 nM | 1 nM | Cn1cnnc1[C@]1(c2cccc(NC(=O)c3cc(CNCC4(C)CCCC4)cn4c(Cl)cnc34)c2)C[C@H](CC#N)C1 [Compound A28, 3-chloro-N-(3-((1s, 3s)-3-(cyanomethyl)-1-(4-methyl-4H-1,2,4-triazol-3-yl)cyclobutyl)phenyl)-6-((((1-methylcyclopentyl)methyl)amino)methyl)imidazo[1,2-a]pyridine-8-carboxamide] |
| 1.8 nM | 0.7 nM | C[C@H](NCc1cc(C(=O)Nc2cccc([C@]3(c4nncn4C)C[C@@H](C)C3)c2)nc2c1NCC2(C)C)C1CCC1 [Compound C46, 7-({[(1S)-1-cyclobutylethyl]amino}methyl)-3,3-dimethyl-N-{3-[(1r, 3s)-3-methyl-1-(4-methyl-1,2,4-triazol-3-yl)cyclobutyl]phenyl}-1H,2H-pyrrolo[3,2-b]pyridine-5-carboxamide] |
| 1.8 nM | 0.7 nM | Cn1cnnc1[C@]1(c2cncc(NC(=O)c3cc(CNC4(C)CCC4)cn4c(Cl)cnc34)c2)C[C@H](C)C1 [Compound A82, 3-chloro-N-(5-((1s, 3s)-3-methyl-1-(4-methyl-4H-1,2,4-triazol-3-yl)cyclobutyl)pyridin-3-yl)-6-(((1-methylcyclobutyl)amino)methyl)imidazo[1,2-a]pyridine-8-carboxamide] |
